These results are taken from publication PMC10257291, “Biological activities of extracts and compounds from Thai Kae-Lae (Maclura cochinchinensis (Lour.) Corner)” (BMC Complementary Medicine and Therapies, 2023).

The test system of one series is WT1 protein. On the set-up: method as in PMID 29274817. To be noted: compounds from Mah-Lueang; cited from earlier work.

Description for red blood cells: The whole blood samples were obtained from normal volunteers. Red blood cells were separated by centrifugation and washed 2 times with 0.9% NaCl. Then, 2% RBC suspension was incubated with crude fractional extracts and compounds at 37 °C for 30 min. Triton-X 100 (2%) and NaCl (0.9%) were positive and negative controls, respectively. Then, the supernatant was collected, and haemoglobin concentration was measured by spectrophotometry at 540 nm. The haemolysis induction was calculated using the following equation:5 %Haemolysisinduction=Absorbance of sample/Absorbance of positive contr×100

Consider `CC(C)=C1C[C@@H]2O[C@@]2(C)CC/C=C(\C)CC1=O` [Germacrone-4,5-epoxide], for which the “decrease of WT1 protein in KG-1a cells” value in the series on WT1 protein is 92.22%.

As for `CC(C)=C1C[C@H]2[C@@H](CC[C@]2(C)O)[C@](C)(O)CC1=O` [zedoarondiol], in the series on WT1 protein, the “decrease of WT1 protein in KG-1a cells” value is listed as 95.52%. As for Triton X100 [0.05% Triton X100], the “Haemolysis (%)” value in the series on red blood cells amounted to 100%.
